{"source": "patent US7045537B1", "about": "“Protein structures and protein fibres” (The University of Sussex, priority 1999, dated 2006)", "format_in_all_cases": "physicochemical", "key": {"[1]": {"assay": "Circular dichroism (CD) spectroscopy of peptides and peptide mixtures", "details": "individual peptide, 10 mM MOPS pH 7, 5° C.", "description": "Peptide samples were incubated at 5° C. in 10 mM MOPS (3-(N-Morpholino)propanesulfonic acid), pH 7. Sample concentrations were determined from their UV absorbance at 280 nm (SAF-p1) and 214 nm (SAF-p2). After baseline correction, ellipticities in mdeg were converted to molar ellipticities (deg cm^2 dmol-res^−1) by normalizing for the concentration of peptide bonds. Data were recorded in a cell of 1 mm path length by integrating the signal for 5s (and 1s for the fresh 100 μM peptide mixture) every nm in the range 205–260 nm. CD measurements were made using a JASCO J-715 spectropolarimeter fitted with a Peltier temperature controller.\nThe CD data shown in FIG. 3 provides spectroscopic evidence for the formation of helical structures by the SAF peptides.\nConsistent with our design, neither SAF-p1 nor SAF-p2 was highly structured in aqueous solution at pH 7 and 5° C. (FIG. 3). However, when mixed in equal proportions the circular dichroism (CD) spectrum changed and, moreover, was markedly different from the theoretical spectrum generated by averaging the spectra for the isolated peptides. In particular, the spectrum for the mixture had intense minima at 208 and 222 nm consistent with the formation of α-helical structure, but these features were not as pronounced in the spectra of the individual peptides. This was clear evidence that the two peptides interacted to form an α-helical structure as designed. Furthermore, and as expected for a multimerization event, the magnitude of these spectral changes depended on peptide concentration; a SAF mixture with 10 μM of each peptide, did show a weak signal indicative of some α-helical structure, however, a 100 μM mixture gave a much stronger signal (FIGS. 3A&B).\nThe shape and intensity of spectra from 100 μM mixtures of the SAF peptides also changed with time (FIG. 3B). […] After incubation of the mixture for 1 hour at 5° C. (“maturation”), however, the signal at 222 nm was more intense, and indicated approximately 75% α-helix, consistent with substantial coiled-coil formation."}, "[2]": {"assay": "Linear dichroism (LD) spectroscopy under shear flow", "details": "for LD DATA @ 100 μM (signal): individual peptide", "description": "Linear dichroism (LD) spectroscopy was also used to test if elongated structures were being formed as designed. Long polymers such as DNA molecules can be oriented by shear flow. This effect can be monitored by LD spectroscopy provided that chromophores also become aligned by the flow (M. Bloemendal (1994) Chem. Soc. Rev. 23, 265; A. Rodger and B. Norden (1997) Oxford Chemistry Masters (Oxford University Press, Oxford), vol. 1).\nPeptide samples were prepared for LD as for CD. LD data were collected on samples spinning in a couette flow cell by integrating the signal for 2 s every nm in the range […], using a JASCO J-715 spectropolarimeter. After baseline correction, absorbance was converted to molar extinction coefficient (1 mol-res^−1 cm^−1) by normalizing for the concentration of peptide bonds. A linear correction for a sloping baseline was made to the data from the 100 μM SAF peptide mixture."}, "[3]": {"assay": "Electron microscopy (TEM/SEM) of peptide preparations", "details": "individual peptide", "description": "To confirm fibre assembly, we used electron microscopy to visualize structures in the peptide preparations directly. For TEM experiments, peptide samples were incubated for 1 h at 5° C. in filtered 10 mM MOPS, pH 7. A drop of peptide solution was applied to a carbon-coated copper specimen grid (Agar Scientific Ltd, Stansted, UK), and dried with filter paper before negative staining with 0.5% aqueous uranyl acetate and then dried at 5° C. A “fresh” SAF peptide mixture was prepared by mixing preincubated solutions of the individual peptides at 200 μM directly on the specimen grid, before drying and negative staining as described. Grids were examined in a Hitachi 7100 TEM at 100 kV and digital images were acquired with a (800×1200 pixel) charge-coupled device camera (Digital Pixel Co. Ltd., Brighton, UK) and analyzed (Kinetic Imaging Ltd., Liverpool, UK).\nFor scanning electron microscopy (SEM) experiments, negatively-stained specimen grids were sputter-coated with gold and examined in a Leo Stereoscan 420 SEM at 20 kV and with a probe current of 10 pA."}, "[4]": {"assay": "Solubility remarks in peptide design table", "details": "individual peptide", "source_text": "Various peptide monomer units were designed as described above. The monomers and capping peptides (designed to complement the sticky ends of the monomers so as to produce flush, or blunt ends and, so, arrest longitudinal fibre assembly) are set out in Table 1: […]"}}, "note": "Residues, ends and D or L forms follow the SMILES beside them."}
{"compound": "CC[C@H](C)[C@H](NC(=O)[C@H](CCC(=O)O)NC(=O)[C@H](CCC(N)=O)NC(=O)[C@H](CCC(=O)O)NC(=O)[C@H](CC(C)C)NC(=O)[C@H](C)NC(=O)[C@H](C)NC(=O)[C@@H](NC(=O)[C@H](CCC(=O)O)NC(=O)[C@H](CCC(N)=O)NC(=O)[C@H](CCCCN)NC(=O)[C@H](CC(C)C)NC(=O)[C@H](Cc1c[nH]cn1)NC(=O)[C@H](C)NC(=O)[C@H](CC(N)=O)NC(=O)[C@H](CCCCN)NC(=O)[C@H](Cc1c[nH]c2ccccc12)NC(=O)[C@H](CCCCN)NC(=O)[C@H](CC(C)C)NC(=O)[C@H](C)NC(=O)[C@H](CCCNC(=N)N)NC(=O)[C@@H](NC(=O)[C@H](CCCCN)NC(C)=O)[C@@H](C)CC)[C@@H](C)CC)C(=O)N[C@@H](C)C(=O)N[C@@H](C)C(=O)N[C@@H](CC(C)C)C(=O)N[C@@H](CCC(=O)O)C(=O)N[C@@H](CCC(N)=O)C(N)=O", "note": "[SAF-p2B, *K IRALKWK NAHLKQE IAALEQE IAALEQ*] (Ac-KIRALKWKNAHLKQEIAALEQEIAALEQ-NH2)", "values": [{"measurement": "CD DATA @ 10 μM (α-helix)", "setting": "[1]", "value": "~60", "unit": "%"}, {"measurement": "CD DATA @ 100 μM (α-helix)", "setting": "[1]", "value": "~95", "unit": "%"}]}
{"compound": "tropomyosin [reference compound]", "values": [{"measurement": "LD signal", "setting": "[2]; 20 μM", "value": "could be aligned to give a LD signal"}]}
{"compound": "CC[C@H](C)[C@H](NC(=O)[C@H](CCCCN)NC(C)=O)C(=O)N[C@@H](C)C(=O)N[C@@H](C)C(=O)N[C@@H](CC(C)C)C(=O)N[C@@H](CCCCN)C(=O)N[C@@H](CCC(N)=O)C(=O)N[C@@H](CCCCN)C(=O)N[C@H](C(=O)N[C@@H](C)C(=O)N[C@@H](C)C(=O)N[C@@H](CC(C)C)C(=O)N[C@@H](CCCCN)C(=O)N[C@@H](CCC(N)=O)C(=O)N[C@@H](CCC(=O)O)C(=O)N[C@H](C(=O)N[C@@H](CC(=O)O)C(=O)N[C@@H](C)C(=O)N[C@@H](CC(C)C)C(=O)N[C@@H](CCC(=O)O)C(=O)N[C@@H](Cc1ccc(O)cc1)C(=O)N[C@@H](CCC(=O)O)C(=O)N[C@@H](CC(N)=O)C(=O)N[C@@H](CC(=O)O)C(=O)N[C@@H](C)C(=O)N[C@@H](CC(C)C)C(=O)N[C@@H](CCC(=O)O)C(=O)N[C@@H](CCC(N)=O)C(N)=O)[C@@H](C)CC)[C@@H](C)CC", "note": "[SAF-p1B, *K IAALKQK IAALKQE IDALEYE NDALEQ*] (Ac-KIAALKQKIAALKQEIDALEYENDALEQ-NH2)", "values": [{"measurement": "CD DATA @ 10 μM (α-helix)", "setting": "[1]", "value": "~60", "unit": "%"}, {"measurement": "CD DATA @ 100 μM (α-helix)", "setting": "[1]", "value": "~70", "unit": "%"}]}
{"compound": "CC[C@H](C)[C@H](NC(=O)[C@H](CCC(=O)O)NC(=O)[C@H](CCC(N)=O)NC(=O)[C@H](CCC(=O)O)NC(=O)[C@H](CC(C)C)NC(=O)[C@H](C)NC(=O)[C@H](C)NC(=O)[C@@H](NC(=O)[C@H](CCC(=O)O)NC(=O)[C@H](CCC(N)=O)NC(=O)[C@H](CCCCN)NC(=O)[C@H](CC(C)C)NC(=O)[C@H](Cc1c[nH]cn1)NC(=O)[C@H](C)NC(=O)[C@H](CC(N)=O)NC(=O)[C@H](CCCCN)NC(=O)[C@H](C)NC(=O)[C@H](CCCCN)NC(=O)[C@H](CC(C)C)NC(=O)[C@H](C)NC(=O)[C@H](CCCNC(=N)N)NC(=O)[C@@H](NC(=O)[C@@H](N)CCCCN)[C@@H](C)CC)[C@@H](C)CC)C(=O)N[C@@H](C)C(=O)N[C@@H](C)C(=O)N[C@@H](CC(C)C)C(=O)N[C@@H](CCC(=O)O)C(=O)N[C@@H](CCC(N)=O)C(=O)O", "note": "[SAF-p2D] (H-KIRALKAKNAHLKQEIAALEQEIAALEQ-OH)", "values": [{"measurement": "CD DATA @ 10 μM (α-helix)", "setting": "[1]", "value": "~15", "unit": "%"}, {"measurement": "CD DATA @ 100 μM (α-helix)", "setting": "[1]", "value": "~45", "unit": "%"}, {"measurement": "LD DATA @ 100 μM (signal)", "setting": "[2]", "value": "no"}, {"measurement": "EM DATA @ 100 μM (fibres)", "setting": "[3]", "value": "no"}]}
{"compound": "CC[C@H](C)[C@H](NC(=O)[C@H](CCCCN)NC(=O)[C@H](CCC(N)=O)NC(=O)[C@H](CCCCN)NC(=O)[C@H](CC(C)C)NC(=O)[C@H](C)NC(=O)[C@H](C)NC(=O)[C@@H](NC(=O)[C@@H](N)CCCCN)[C@@H](C)CC)C(=O)N[C@@H](C)C(=O)N[C@@H](C)C(=O)N[C@@H](CC(C)C)C(=O)N[C@@H](CCCCN)C(=O)N[C@@H](CCC(N)=O)C(=O)N[C@@H](CCC(=O)O)C(=O)N[C@H](C(=O)N[C@@H](CC(=O)O)C(=O)N[C@@H](C)C(=O)N[C@@H](CC(C)C)C(=O)N[C@@H](CCC(=O)O)C(=O)N[C@@H](Cc1ccc(O)cc1)C(=O)N[C@@H](CCC(=O)O)C(=O)N[C@@H](CC(N)=O)C(=O)N[C@@H](CC(=O)O)C(=O)N[C@@H](C)C(=O)N[C@@H](CC(C)C)C(=O)N[C@@H](CCC(=O)O)C(=O)N[C@@H](CCC(N)=O)C(=O)O)[C@@H](C)CC", "note": "[SAF-p1A] (H-KIAALKQKIAALKQEIDALEYENDALEQ-OH)", "values": [{"measurement": "CD DATA @ 10 μM (α-helix)", "setting": "[1]", "value": "unfolded"}, {"measurement": "CD DATA @ 100 μM (α-helix)", "setting": "[1]", "value": "~45", "unit": "%"}, {"measurement": "EM DATA @ 100 μM (fibres)", "setting": "[3]", "value": "no"}, {"measurement": "DESIGN remark on solubility / precipitation", "setting": "[4]", "value": "precipitates"}]}
{"compound": "CC[C@H](C)[C@H](NC(=O)[C@H](CCC(=O)O)NC(=O)[C@H](CCC(N)=O)NC(=O)[C@H](CCC(=O)O)NC(=O)[C@H](CC(C)C)NC(=O)[C@H](C)NC(=O)[C@H](C)NC(=O)[C@@H](NC(=O)[C@H](CCC(=O)O)NC(=O)[C@H](CCC(N)=O)NC(=O)[C@H](CCCCN)NC(=O)[C@H](CC(C)C)NC(=O)[C@H](Cc1c[nH]cn1)NC(=O)[C@H](C)NC(=O)[C@H](CC(N)=O)NC(=O)[C@H](CCCCN)NC(=O)[C@H](Cc1c[nH]c2ccccc12)NC(=O)[C@H](CCCCN)NC(=O)[C@H](CC(C)C)NC(=O)[C@H](C)NC(=O)[C@H](CCCNC(=N)N)NC(=O)[C@@H](NC(=O)[C@@H](N)CCCCN)[C@@H](C)CC)[C@@H](C)CC)C(=O)N[C@@H](C)C(=O)N[C@@H](C)C(=O)N[C@@H](CC(C)C)C(=O)N[C@@H](CCC(=O)O)C(=O)N[C@@H](CCC(N)=O)C(=O)O", "note": "[SAF-p2C] (H-KIRALKWKNAHLKQEIAALEQEIAALEQ-OH)", "values": [{"measurement": "CD DATA @ 10 μM (α-helix)", "setting": "[1]", "value": "unfolded"}, {"measurement": "CD DATA @ 100 μM (α-helix)", "setting": "[1]", "value": "~20", "unit": "%"}, {"measurement": "EM DATA @ 100 μM (fibres)", "setting": "[3]", "value": "thin"}]}
{"compound": "CC[C@H](C)[C@H](NC(=O)[C@H](CCCCN)NC(=O)[C@H](CCC(N)=O)NC(=O)[C@H](CCCCN)NC(=O)[C@H](CC(C)C)NC(=O)[C@H](C)NC(=O)[C@H](C)NC(=O)[C@@H](NC(=O)[C@@H](N)CCCCN)[C@@H](C)CC)C(=O)N[C@@H](C)C(=O)N[C@@H](CO)C(=O)N[C@@H](CC(C)C)C(=O)N[C@@H](CCCCN)C(=O)N[C@@H](CCC(N)=O)C(=O)N[C@@H](CCC(=O)O)C(=O)N[C@H](C(=O)N[C@@H](CC(=O)O)C(=O)N[C@@H](C)C(=O)N[C@@H](CC(C)C)C(=O)N[C@@H](CCC(=O)O)C(=O)N[C@@H](Cc1ccc(O)cc1)C(=O)N[C@@H](CCC(=O)O)C(=O)N[C@@H](CC(N)=O)C(=O)N[C@@H](CC(=O)O)C(=O)N[C@@H](C)C(=O)N[C@@H](CC(C)C)C(=O)N[C@@H](CCC(=O)O)C(=O)N[C@@H](CCC(N)=O)C(=O)O)[C@@H](C)CC", "note": "[SAF-p1C] (H-KIAALKQKIASLKQEIDALEYENDALEQ-OH)", "values": [{"measurement": "CD DATA @ 10 μM (α-helix)", "setting": "[1]", "value": "unfolded"}, {"measurement": "CD DATA @ 100 μM (α-helix)", "setting": "[1]", "value": "~20", "unit": "%"}, {"measurement": "LD DATA @ 100 μM (signal)", "setting": "[2]", "value": "no"}, {"measurement": "EM DATA @ 100 μM (fibres)", "setting": "[3]", "value": "no"}]}
{"compound": "K ISALKNK NASLKQE IAALEQE IAALEQ (KISALKNKNASLKQEIAALEQEIAALEQ) [SAF-p2A]", "values": [{"measurement": "CD DATA @ 10 μM (α-helix)", "setting": "[1]", "value": "unfolded"}, {"measurement": "DESIGN remark on solubility / precipitation", "setting": "[4]", "value": "low solubility"}]}
